# Reference: publication PMC12828148, “Engineered cyclic peptide targeting ITGA5 disrupts tumor–stroma interaction to overcome desmoplasia and resistance in pancreatic ductal adenocarcinoma” (Acta Pharmaceutica Sinica. B, 2025)
# Peptide text beside a SMILES is read from it.
# Assays:
# [1] = molecular target: T1, human integrin α5β1 (Homo sapiens, UniProt P05556+P08648); experiment: ITGA5 competition study (α5β1 binding to FN-coated plate, ELISA); details: human recombinant α5β1 on FN-coated plate, increasing peptide concentrations
# T1 construct: purchased RnD (printed for the alanine-replacement peptide array, not for the ELISA itself)
# Method: To examine the affinity of the peptide to the target ITGA5, a 96 well MaxiSorp™ (Thermo Scientific) was coated with 100 μL FN (Advanced Biomatrix) at 1 μg/mL by overnight incubation at 4 °C. Next, the plate was washed with DPBS (Lonza) and blocked with 5% bovine serum albumin (BSA) in DPBS for at least 1 h at RT. In the meantime, mentioned concentrations of the peptides were mixed with 2 μg/mL human integrin α5β1 in DPBS with Mg^2+ and Ca^2+. The mixture was then set to rest for 30 min at RT. After blocking with 5% BSA, the plate was washed with DPBS. The mixture of integrin α5β1 and peptide was transferred to a well plate and incubated for 1 h at RT. Next, the plate was washed three times with PBS with 0.1% Tween 20 (PBS-T) and then mouse anti-human CD49e (RnD Systems) was added. After 1 h of incubation, plate was washed and the secondary peroxidase labeled antibody was added and incubated for 1 h at RT. After washing with PBS-T, the plate was quickly developed with 3,3′,5,5′-tetramethylbenzidine (TMB) (50 μL per well) and incubated for 5 min at RT in the dark. The reaction was stopped with 3 mol/L H2SO4 (50 μL per well) and the absorbance was measured at 450 nm with plate reader (Tecan).
# [2] = tested on: TGF-β treated PSCs; experiment: Cell adhesion competition study (PSC attachment to FN-coated plate, crystal violet); assay type: cell-based, human; details: 50 μmol/L peptide, 30 min pre-incubation 37 °C, 1 h attachment, crystal violet absorbance 600 nm, n = 3
# Method: To analyze the interaction of PSC and FN, a 96 suspension well plate was coated with 100 μL FN (Advanced Biomatrix, Carlsbad, CA, USA) at 1 μg/mL by overnight incubation at 4 °C. Next, the plate was washed with DPBS (Lonza) and blocked with 5% bovine serum albumin (BSA) in DPBS for at least 1 h at RT. In the meantime, a cell suspension of 200,000 cells/mL of TGF-β treated PSCs in DPBS with 2 mmol/L Ca^2+ and 2 mmol/L Mg^2+ was treated with 50 μmol/L AV3.3 or cyAV3.3 and incubated for 30 min at 37 °C. After washing the plate with DPBS, 100 μL cell suspension was added to each well and then set to rest for 1 h at RT. The plate was then washed with DPBS to remove unattached cells. […] Next, cells were stained with 0.1% (w/v) crystal violet (Sigma) in 25% methanol at RT. After 20 min, cells were washed with water and lysed with 0.5% (w/v) SDS. The degree of cell attachment was measured by the absorbance of the crystal violet at 600 nm using Tecan Infinite M200 plate reader (Tecan, Mannendorf, Switzerland). In other plate, cells were washed with DPBS after fixation and then stained with DAPI. Images were developed using EVOS fluorescence microscope (Thermo Scientific).
# [3] = Peptide stability in human plasma; assay type: in vitro ADME; details: 20 µmol/L peptide, 50% human plasma, 37 °C, 1, 2 and 24 h, TCA precipitation, RP-HPLC UV 280 nm
# Method: To evaluate the stability, 20 µmol/L peptide was incubated in 50% human plasma at biological temperature 37 °C for 1, 2, and 24 h. After incubation, plasma was precipitated by adding equal volume of 4% trichloroacetic acid (TCA) and rested on ice for 10 min. As control (or 0h), precipitation was performed immediately after mixing the peptide and plasma. Supernatant was collected after centrifugation at 13,300 × g and assessed using reversed phase high performance liquid chromatography (HPLC) with 5%, 95%, and 99.9% acetonitrile in de-gassed water with 0.1% trifluoroacetic acid as eluents. The remaining peptide was analyzed at a wavelength 280 nm.
# Quantitative real-time PCR […]
# (§1) The next day, the medium […]
# (§2) was changed with 0% FBS Stellate Cell medium to starve hPSCs for 24 h. Subsequently, hPSCs were incubated with 5 ng/mL TGF-β1 and peptide for 48 h to examine the effect on protein expression of different markers such as α-SMA and collagen-1. Cells were lysed using 1× blue loading buffer containing 1× DTT reducing agent (Cell Signaling Technology) and homogenized using ultrasonication. Protein lysates were separated on a 4%–20% Tris-Glycine gel (Thermo Scientific) and then transferred onto a PVDF membrane (Thermo Scientific). […]
# [4] = tested on: hPSCs activated by TGF-β; experiment: Gene expression in TGF-β-activated hPSCs (qPCR, RT2 profiler PCR array); assay type: cell-based, human
# Method: Quantitative real-time PCR
# To examine the effect of peptides on the gene expression of hPSC activation markers, cells were seeded into a 12 well plate at a seeding density of 50,000 cells/well. After overnight incubation, cells were starved for 24 h, then treated with human recombinant 5 ng/mL TGF-β (Peprotech, […]
# After 24 h of the incubation, cells were lysed and total RNA was isolated using GenElute™ Mammalian Total RNA Miniprep Kit (Sigma–Aldrich) and the RNA concentration was measured using a NanoDrop® ND-1000 Spectrophotometer (Thermo Scientific, Waltham, USA). cDNA was synthesized with iScript™ cDNA Synthesis Kit (BioRad, Veenendaal, The Netherlands), and 10 ng cDNA was used for each PCR reaction. The real-time PCR primers (Table S1) were purchased from Sigma–Aldrich. Quantitative real time PCR was performed with 2× SensiMix SYBR and Fluoroscein Kit (Bioline GmbH, Luckenwalde, Germany) using a BioRad CFX384 Real-Time PCR detection system (BioRad). Gene expression levels were normalized to the expression of the house-keeping gene 18s rRNA. […]
# as §1, §2
# [5] = tested on: hPSCs; experiment: Cell viability, Alamar blue assay; assay type: cell-based, human
# Method: We investigated the inhibitory effect of both cyclic and linear peptides on PSC activation and signaling. To achieve this, PSCs were seeded and treated with TGF-β and peptides for 48 h (protein expression) or 24 h (gene expression). We also tested the effect of the peptide on the cell viability using Alamar blue assay and found no toxicity (Supporting Information Fig. S3A). […] To quantitate that, we performed Western blot analysis and confirmed the observed effect via immunostaining (Fig. 2B and C; Fig. S3B). The details of the antibodies used can be found in Supporting Information Table S2. […] After obtaining these effects, we focused on cyAV3.3 and examined its inhibitory effects on TGF-β1-stimulated PSCs using qPCR and an RT[2] profiler PCR array for ECM and adhesion receptors (Fig. 2D). […] The details of primers for all genes can be found in Supporting Information Table S3. […] In contrast, cyAV3.3 induced the gene expression of ECM-degrading proteins such as MMP10 and ADAMTS-13 (Supporting Information Fig. S4).
compound,measurement,setting,value
C[C@@H]1NC(=O)[C@H](CCCNC(=N)N)NC(=O)[C@H](Cc2ccc(O)cc2)NC(=O)[C@H](Cc2ccc(O)cc2)NC(=O)[C@H](CCCNC(=N)N)NC(=O)CNC(=O)[C@H](CCCCN)NC(=O)[C@H](Cc2ccc(O)cc2)NC(=O)[C@H]([C@@H](C)O)NC1=O [cyAV3.3] (cyclo(ATYKGRYYR)),"blocking of FN-α5β1 interaction, cyclic versus linear",[1],blocked the interaction significantly stronger than AV3.3
same,blocking of the binding of PSC to FN,[2],blocked the binding of PSC to FN significantly higher than AV3.3
same,stability of the peptides in human plasma,[3],significant improvement in the stability
same,gene expression of FN and ITGA5,"[4]; hPSCs activated by TGF-β, cyAV3.3 50 μmol/L, 24 h, qPCR",significantly inhibited the gene expression of FN and ITGA5
same,expression of 38 ECM and adhesion genes upregulated by TGF-β (heatmap),"[4]; hPSCs activated by TGF-β, cyAV3.3 50 μmol/L, RT2 Profiler PCR array",downregulated all the upregulated genes
same,TGF-β-induced gene expression of ACTA2 and COL-1A1,"[4]; hPSCs, 5 ng/mL TGF-β, 24 h, qPCR",inhibited both ACTA2 and COL-1A1 concentration dependently
same,effect on cell viability,[5],no toxicity
